Results from paper PMC7835950 (Frontiers in Chemistry, 2021).
Several values for one entry are separate records, joined by “and”; a condition that tells them apart may be missing. Equal values may be shown once. Read-outs that look alike come from different tables or passages of the source.

Key:
[1] = target: T1, OADH (Rattus norvegicus, UniProt Q4KLP0); assay: OADH reaction catalyzed by the enzyme preparation from rat liver, low [OA] (high-affinity OA sites); assay type: biochemical; settings: for Ki / Amax: OADH reaction, liver; for Amax: high-affinity sites
T1 sequence (Q4KLP0 45-920 limits assumed): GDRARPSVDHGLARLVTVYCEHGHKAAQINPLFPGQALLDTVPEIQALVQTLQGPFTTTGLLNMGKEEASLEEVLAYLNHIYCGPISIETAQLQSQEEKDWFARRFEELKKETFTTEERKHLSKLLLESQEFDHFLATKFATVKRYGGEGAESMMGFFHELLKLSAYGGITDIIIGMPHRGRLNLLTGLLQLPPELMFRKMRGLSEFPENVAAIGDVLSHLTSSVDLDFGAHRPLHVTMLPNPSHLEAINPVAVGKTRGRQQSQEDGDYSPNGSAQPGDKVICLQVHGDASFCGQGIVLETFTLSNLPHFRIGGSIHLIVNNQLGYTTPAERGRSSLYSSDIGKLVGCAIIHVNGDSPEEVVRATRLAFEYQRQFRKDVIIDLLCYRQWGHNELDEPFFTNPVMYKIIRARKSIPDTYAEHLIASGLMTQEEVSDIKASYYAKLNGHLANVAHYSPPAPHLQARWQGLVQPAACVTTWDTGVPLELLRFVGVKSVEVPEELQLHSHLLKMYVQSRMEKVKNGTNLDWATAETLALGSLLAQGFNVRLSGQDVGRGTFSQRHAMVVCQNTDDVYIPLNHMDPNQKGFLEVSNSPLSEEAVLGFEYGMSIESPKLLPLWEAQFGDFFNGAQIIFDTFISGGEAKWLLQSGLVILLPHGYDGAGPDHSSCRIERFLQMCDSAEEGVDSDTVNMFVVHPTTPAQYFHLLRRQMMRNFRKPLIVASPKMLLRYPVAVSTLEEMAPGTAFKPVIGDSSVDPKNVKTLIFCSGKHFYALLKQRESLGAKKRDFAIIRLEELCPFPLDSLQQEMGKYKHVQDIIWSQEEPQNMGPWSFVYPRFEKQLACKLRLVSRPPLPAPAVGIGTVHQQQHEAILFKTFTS
Protocol: Enzymes catalyzing OGDH and OADH reactions were enriched from rat hearts and livers using polyethylene glycol precipitation, as previously described (Artiukhov et al., [2020]).
The enzyme activities were assayed in the medium (pH 7.0) containing 50 mM MOPS, 1 mM ThDP, 1 mM MgCl2, 1 mM CaCl2, 1 mM dithiothreitol 0.15 mM Coenzyme A, 0.25 mM NAD^+ and various concentrations of 2-oxo substrates (0–10 mM OG or OA) and their phosphonate analogs (0–5,000 μM SP, GP, or AP). Reactions were started by addition of the enzyme preparations to the assay media. The amount of enzyme preparations (0.074 mg protein for the preparation from liver and 0.023 mg protein for the preparation from heart) were chosen to induce the lowest reliably measured reaction rate (ΔA340 = 0.001/min) at 0.01 mM OA without the phosphonates.
Reaction rates were calculated from linear parts of the product accumulation curves (up to 10 min, dependent on the reaction rate), excluding the initial region, where mixing the reagents and solubilization of the preparation affected the optical density.
Non-linear regression was used to approximate the experimental dependences of the reaction rates on the OG or OA concentration according to the Michaelis-Menten equation ( a=Amax*[S]/Km+[S] ) or its sum ( a=Amax*[S]/Km+[S]+Amax,2*[S]/Km,2+[S] ). The former equation describes one type of the active sites. […] The assumption was based on the presence of the two enzymes, OGDH and OADH, in the employed preparations.
The kinetic data were also analyzed by linear regression, using the known methods of the linearization of the Michaelis-Menten equation in the Lineweaver-Burk ( 1/a=1/Amax(1+Km/[S]) ) and Eadie-Hofstee ( a=Amax−Kmv/[S] ) coordinates. Due to the several orders of magnitude difference in the values of Km,1 and Km,2, the linear regression required separate analysis of the dependencies in the intervals of the low and high concentrations of 2-oxoadipate. The Km and Amax values obtained in independent experiments using the non-linear and linear regression analyses of the experimental data, were averaged and presented as Mean ± Standard Error of Mean.
To determine the inhibition constants (Ki), the effective values of Kmeff and Amaxeff , calculated from the hyperbolic or linear approximations as described above, were plotted against the concentration of the inhibitors ([I]). The linear regression of the equation Kmeff/Amaxeff=Km/Amax(1+[I]/Ki) , (Cornish-Bowden, [1979]) was applied to find the Intercept (Km/Amax) and Slope (Km/(Amax*Ki)) of a dependence. The values of Ki were determined as the ratio of the corresponding Intercepts to the Slopes. In the two-site model, the Ki(1) and Ki(2) were calculated separately from the linear approximations of Km,1eff/Amax,1eff vs. [I] and Km,2eff/Amax,2eff vs. [I] dependences, respectively. The standard errors of Ki were determined from means and standard errors of the Intercepts and the Slopes, using the previously described formula for standard deviation of a fraction (Bunik et al., [1999]). The Ki values obtained from the non-linear and linear regression analyses of the experimental data were averaged and presented as Mean ± Standard Error of Mean.

[2] = tested on: other enzymes transforming organic acids or structurally related compounds; set-up: method as in Artiukhov et al., 2020; settings: ref Artiukhov et al., 2020; cited from earlier work
[3] = tested on: recombinant human OADH; set-up: method as in Nemeria et al., 2017, 2018; settings: ref Nemeria et al., 2017, 2018, cited from earlier work
[4] = tested on: recombinant OGDH complex; settings: cited from earlier work
[5] = low [OA] 0–0.05 mM, Michaelis-Menten, read-out: Ki, MM
[6] = low [OA], Eadie-Hofstee, read-out: Ki, EH
[7] = low [OA], Lineweaver-Burk, read-out: Ki, LB
[8] = low [OA], average, read-out: Ki, Average

| Compound | Ki [1, 5] | Ki [1, 6] | Ki [1, 7] | Ki [1, 8] | Amax ([1]; [I] 0.5 µM) | Amax ([1]; [I] 2 µM) | Amax ([1]; [I] 10 µM) | interaction with other enzymes [2] | Amax ([1]; [I] 50 µM) | Amax ([1]; [I] 200 µM) | Amax ([1]; [I] 1000 µM) | Amax ([1]; [I] 5000 µM) | difference in the affinities of the two types of the sites to OA ([1]; hepatic preparation, low- vs high-affinity sites) | kcat OA of recombinant OADH complex [3] | Km ([3]; read-out: Km OA of recombinant human OADH) | Km ([4]; OA as alternative substrate, ref Nemeria et al., 2017) | kcat OA of recombinant OGDH complex ([4]; ref Nemeria et al., 2017, 2018) |
| --- | --- | --- | --- | --- | --- | --- | --- | --- | --- | --- | --- | --- | --- | --- | --- | --- | --- |
| O=C(O)CCCCC(=O)P(=O)(O)O [AP, adipoyl phosphonate] | 0.05 µM and 0.044 µM | 0.044 ± 0.111 µM | 0.056 ± 0.118 µM | 0.048 ± 0.004 µM | 0.0014 ± 0.0001 µmol/min per mg of protein | 0.0056 ± 0.0022 µmol/min per mg of protein | 0.0088 ± 0.0041 µmol/min per mg of protein | no significant interaction | – | – | – | – | – | – | – | – | – |
| O=C(O)CCC(=O)P(=O)(O)O [SP, succinyl phosphonate] | 128 ± 9 µM | 110 ± 7 µM | 109 ± 9 µM | 116 ± 6 µM | – | – | 0.0017 ± 0.0001 µmol/min per mg of protein | no significant interaction | 0.0016 ± 0.0001 µmol/min per mg of protein | 0.0016 ± 0.00005 µmol/min per mg of protein | 0.0014 ± 0.0001 µmol/min per mg of protein | 0.0010 ± 0.00003 µmol/min per mg of protein | – | – | – | – | – |
| O=C(O)CCCC(=O)C(=O)O [OA, 2-oxoadipate] | – | – | – | – | – | – | – | – | – | – | – | – | 60 fold | 6.0 s⁻¹ | 15 µM | 520 µM | 2.7 s⁻¹ |
| O=C(O)CCCC(=O)P(=O)(O)O [GP, glutaryl phosphonate] | 2.4 ± 0.3 µM | 1.9 ± 0.3 µM | 1.6 ± 0.2 µM | 2 ± 0.2 µM | – | 0.0026 ± 0.0002 µmol/min per mg of protein | 0.0018 ± 0.0001 µmol/min per mg of protein | – | 0.0011 ± 0.00005 µmol/min per mg of protein | 0.0016 ± 0.0001 µmol/min per mg of protein | 0.0013 ± 0.0001 µmol/min per mg of protein | – | – | – | – | – | – |
